Test results: PubChem BioAssay AID1963836 (Molecular Pharmacology Branch, DTP, NCI, 2024)

Tested on: 857933-349-R-J2-PDC complex spheroid viability
Assay: Anticancer human tumor 857933-349-R-J2-PDC patient-derived colon adenocarcinoma cell line growth inhibition [POLQ]
Conditions: for IC50: curve of first compound; for viability, T/C: stronger effect = lower value
Experimental: Multicellular complex tumor spheroid response to Polymerase (POL) inhibitors (novobiocin, ART-558, RP6685) in combination with a variety of drugs and investigational agents in selected tumor cell lines
The POL inhibitors (novobiocin, ART-558, and RP6685) were evaluated both individually and in combination with standard of care and investigational anticancer small molecules within a complex spheroid model of solid tumors. . Complex spheroids include a stromal component modeled by human endothelial cells (HUVEC) and fibroblasts modeled by human mesenchymal stem cells (MSCs). The concentration ranges selected for each drug and investigational agent were based upon clinically achievable concentrations if the clinical Cmax of the agent was known.
Compounds. The drugs and investigational agents: novobiocin (NSC847541), ART-558 (NSC835418), RP-6685 (NSC848927), peposertib (NSC802822), ceralasertib (NSC780249), elimusertib (NSC800525), camonsertib (NSC841442), AZD-1390 (NSC803789), olaparib (NSC753686), talazoparib (NSC767125), rucaparib (NSC756644), sotorasib (NSC818433), MRTX-1133 (NSC836407), SN-38 (NSC673596), topotecan (NSC609699), epotoside (NSC141540), doxorubicin (NSC123127), gemcitabine (NSC613327), 5-fluorouracil (NSC19893), paclitaxel (NSC125973), vemurafenib (NSC761431), MSA-2 (NSC828583), SN-011 (NSC837082), adavosertib (NSC754352), prexasertib (NSC758257), carboplatin (NSC241240) and oxaliplatin (NSC266046), were obtained from the National Cancer Institute (NCI) Developmental Therapeutics Program Chemical Repository (21). The FDA-approved anticancer drug set is available from the Developmental Therapeutics Program at https://dtp.cancer.gov/organization/dscb/obtaining/. […] The stock solutions were prepared in dimethyl sulfoxide (DMSO, Sigma-Aldrich, St. Louis, MO, cat. D2650), except for the platinum compounds which were prepared in saline (Quality Biological, Gaithersburg, MD, cat. 114-055-101), at 800-fold the tested concentration and stored at -70 degrees C prior to their use. All drugs and investigational agents were tested over a range starting from a high concentration at or near the clinical Cmax and decreasing in half-log increments. If the clinical Cmax for an agent had not been determined, the highest concentration tested was 10 microM, except for SN-38, which was tested at a high concentration of 1 microM.
Cell Culture. All cells were maintained in an incubator at 37 degrees C and 5% CO2 with 95% humidity. The PDC lines were cultured according to standard operating procedures established by the NCI PDMR (https://pdmr.cancer.gov). Table 3 of the manuscript, lists the cell lines along with the number of the three cell types plated to form the mct-spheroids and media for tumor cell growth. After thawing, all PDC lines, except 997537-175-T-J1-PDC and 415267-285-R-J2-PDC, were cultured in Matrigel-coated flasks prepared with a working solution of 1X Ham's F-12 nutrient mix, without supplementation (Thermo Fisher Scientific, cat. 11765054), 100 U/mL penicillin-streptomycin (Thermo Fisher Scientific, cat. 15140122), and 2.5% Matrigel (Corning Inc., Corning, NY, cat. 354248) for the first three passages. The two PDC lines 997537-175-T-J1-PDC and 415267-285-R-J2-PDC were cultured on uncoated flasks. The 857933-349-R-J2-PDC line was cultured in 6C/Colon 1B media containing advanced DMEM/F-12 (Thermo Fisher Scientific, cat. 12634028), 10 mM HEPES (Thermo Fisher Scientific, cat. 15630080), 1X GlutaMAX supplement (Thermo Fisher Scientific, cat. 35050061), 0.1 mg/mL primocin (InvivoGen, San Diego, CA, cat. ant-pm-2), 10% defined fetal bovine serum, heat inactivated (HyClone Laboratories Inc., Logan, UT, cat. SH30070.03HI), 50% L-WRN conditioned media (ATCC, cat. CRL-3276), 1.25 mM N-Acetyl-L-cysteine (Sigma-Aldrich, cat. A9165), 10 mM nicotinamide (Sigma-Aldrich, cat. N0636), 1X B-27 supplement (Thermo Fisher Scientific, cat. 17504044), 1X N-2 supplement (Thermo Fisher Scientific, cat. […]
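Further: spheroids exposed to compounds for seven days before readout.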

CCc1cc2c(N3CCc4c(cc(Cn5ccnc5)cc4-c4cn(C)nc4C(F)(F)F)C3=O)ccnc2c(OC)n1 + Cc1cccc(N(C)C(=O)C2C(O)CCN2c2nc(C)cc(C(F)(F)F)c2C#N)c1 was tested, and the IC50 (second compound 0.0316 µM) was > 10 µM, the IC50 (second compound 0.1 µM) was > 10 µM and the IC50 (second compound 0.316 µM) was > 10 µM. For the same molecule, the IC50 (second compound 1 µM) was > 10 µM, the IC50 (second compound 3.16 µM) was > 10 µM and the IC50 (second compound 10 µM) was > 10 µM. It also gave a viability, T/C (second compound 0.0316 µM, first compound 0.0316 µM) of 104%, a viability, T/C (second compound 0.0316 µM, first compound 0.1 µM) of 91% and a viability, T/C (second compound 0.0316 µM, first compound 0.316 µM) of 94.5%. The viability, T/C (second compound 0.0316 µM, first compound 1 µM) was 82%, the viability, T/C (second compound 0.0316 µM, first compound 3.16 µM) was 77.7% and the viability, T/C (second compound 0.0316 µM, first compound 10 µM) was 63.1%. For the same molecule, the viability, T/C (second compound 0.1 µM, first compound 0.0316 µM) was 91.6%, the viability, T/C (second compound 0.1 µM, first compound 0.1 µM) was 92.8% and the viability, T/C (second compound 0.1 µM, first compound 0.316 µM) was 75.9%. It also gave a viability, T/C (second compound 0.1 µM, first compound 1 µM) of 79.5%, a viability, T/C (second compound 0.1 µM, first compound 3.16 µM) of 77% and a viability, T/C (second compound 0.1 µM, first compound 10 µM) of 54.8%. It also gave a viability, T/C (second compound 0.316 µM, first compound 0.0316 µM) of 96.5%, a viability, T/C (second compound 0.316 µM, first compound 0.1 µM) of 100% and a viability, T/C (second compound 0.316 µM, first compound 0.316 µM) of 92.4%. For the same molecule, the viability, T/C (second compound 0.316 µM, first compound 1 µM) was 97.8%, the viability, T/C (second compound 0.316 µM, first compound 3.16 µM) was 79.7% and the viability, T/C (second compound 0.316 µM, first compound 10 µM) was 61.1%. The viability, T/C (second compound 1 µM, first compound 0.0316 µM) was 122%, the viability, T/C (second compound 1 µM, first compound 0.1 µM) was 103% and the viability, T/C (second compound 1 µM, first compound 0.316 µM) was 93.1%. For the same molecule, the viability, T/C (second compound 1 µM, first compound 1 µM) was 83.3%, the viability, T/C (second compound 1 µM, first compound 3.16 µM) was 82.5% and the viability, T/C (second compound 1 µM, first compound 10 µM) was 72.3%. For the same molecule, the viability, T/C (second compound 3.16 µM, first compound 0.0316 µM) was 97.8%, the viability, T/C (second compound 3.16 µM, first compound 0.1 µM) was 80.1% and the viability, T/C (second compound 3.16 µM, first compound 0.316 µM) was 83%. It also gave a viability, T/C (second compound 3.16 µM, first compound 1 µM) of 88.7%, a viability, T/C (second compound 3.16 µM, first compound 3.16 µM) of 79.2% and a viability, T/C (second compound 3.16 µM, first compound 10 µM) of 84.8%. The viability, T/C (second compound 10 µM, first compound 0.0316 µM) was 96.3%, the viability, T/C (second compound 10 µM, first compound 0.1 µM) was 96.3% and the viability, T/C (second compound 10 µM, first compound 0.316 µM) was 80.1%. The viability, T/C (second compound 10 µM, first compound 1 µM) was 73.6%, the viability, T/C (second compound 10 µM, first compound 3.16 µM) was 76.3% and the viability, T/C (second compound 10 µM, first compound 10 µM) was 61.9%.
